Laboratory results published in patent publication US9833497B2, “Human originated EGF domain proteins and use of the same” (CHENGDU SOURCEBIO LIMITED-LIABILITY COMPANY, priority 2013, dated 2017).

Experiments:
Type in all cases: cell-based
[1] = system: E. coli DH5α; test: Antibacterial activity: MIC and growth curve against E. coli DH5α in 96-well plate; details: minimal inhibitory concentration against E. coli DH5α; 96-well plate, 5×10^5 CFU/mL, 37° C., judged after 8 h
In short: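 Log-phase DH5α (OD600 about 0.5, 37° C, 185 rpm in LB) was pelleted, resuspended in fresh LB and seeded at 5×10^5 CFU/mL with recombinant protein at 50, 25 and 12.5 μg/mL (two-fold series), in triplicate. Plates were shaken at 175 rpm, 37° C, and OD600 was read every 30 min. MIC was the lowest concentration with no growth.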

[2] = system: E. coli BL21; test: MIC against Gram-negative bacteria: E. coli BL21
In short: (§1)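 First, colonies from LB agar were grown in LB at 37° C, 185 rpm, to McFarland turbidity 0.5, then centrifuged and resuspended in fresh LB. Next, wells received 5×10^5 CFU/mL bacteria plus two-fold serially diluted EGF domain protein (triplicate). Finally, plates were shaken at 37° C and the no-growth concentration taken as MIC.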

[3] = system: Pseudomonas aeruginosa; test: MIC against Gram-negative bacteria: Pseudomonas aeruginosa
In short: as §1

[4] = system: Klebsiella pneumonia; test: MIC against Gram-negative bacteria: Klebsiella pneumonia
In short: as §1

[5] = system: Enterobacter cloacae; test: MIC against Gram-negative bacteria: Enterobacter cloacae
In short: as §1

[6] = system: Aeromonas hydrophila; test: MIC against Gram-negative bacteria: Aeromonas hydrophila
In short: as §1

[7] = system: Citrobacter diversus; test: MIC against Gram-negative bacteria: Citrobacter diversus
In short: as §1

[8] = system: Moraxella catarrhalis; test: MIC against Gram-negative bacteria: Moraxella catarrhalis
In short: as §1

[9] = system: Proteus mirabilis; test: MIC against Gram-negative bacteria: Proteus mirabilis
In short: as §1

[10] = system: Proteus vulgaris; test: MIC against Gram-negative bacteria: Proteus vulgaris
In short: as §1

[11] = system: Serratia marcescens; test: MIC against Gram-negative bacteria: Serratia marcescens
In short: as §1

[12] = 96-well plate, 5×10^5 CFU/mL, 37° C., 10 h
[13] = E. coli BL21, 10 h cultivation at 37° C., 5×10^5 CFU/mL
[14] = P. aeruginosa, 10 h cultivation at 37° C., 5×10^5 CFU/mL
[15] = K. pneumonia, 10 h cultivation at 37° C., 5×10^5 CFU/mL
[16] = E. cloacae, 10 h cultivation at 37° C., 5×10^5 CFU/mL
[17] = A. hydrophila, 10 h cultivation at 37° C., 5×10^5 CFU/mL
[18] = C. diversus, 10 h cultivation at 37° C., 5×10^5 CFU/mL
[19] = M. catarrhalis, 10 h cultivation at 37° C., 5×10^5 CFU/mL
[20] = P. mirabilis, 10 h cultivation at 37° C., 5×10^5 CFU/mL
[21] = P. vulgaris, 10 h cultivation at 37° C., 5×10^5 CFU/mL
[22] = S. marcescens, 10 h cultivation at 37° C., 5×10^5 CFU/mL

PRT584 (CQCSHEGALSSLCEKTSGQCLCRTGAFGLRCDRCQRGQWGFPSCRP; listed as Homo sapiens)
MIC [1]: 50 µg/mL | MIC against E. coli BL21 [2, 12]: 50 µg/mL | MIC against P. aeruginosa [3, 12]: 25 µg/mL | MIC against K. pneumonia [4, 12]: 50 µg/mL | MIC against E. cloacae [5, 12]: 25 µg/mL | MIC against A. hydrophila [6, 12]: 50 µg/mL | MIC against C. diversus [7, 12]: 25 µg/mL | MIC against M. catarrhalis [8, 12]: 50 µg/mL | MIC against P. mirabilis [9, 12]: 25 µg/mL | MIC against P. vulgaris [10, 12]: 50 µg/mL | MIC against S. marcescens [11, 12]: 25 µg/mL

PRT688 (DVDECQLFRDQVCKSGVCVNTAPGYSCYCSNGYYYHTQRLECI; listed as Homo sapiens)
MIC [1]: 25 µg/mL | MIC E. coli BL21 [2, 12]: 12.5 µg/mL | MIC P. aeruginosa [3, 12]: 25 µg/mL | MIC K. pneumonia [4, 12]: 50 µg/mL | MIC E. cloacae [5, 12]: 12.5 µg/mL | MIC A. hydrophila [6, 12]: 25 µg/mL | MIC C. diversus [7, 12]: 50 µg/mL | MIC M. catarrhalis [8, 12]: 12.5 µg/mL | MIC P. mirabilis [9, 12]: 50 µg/mL | MIC P. vulgaris [10, 12]: 100 µg/mL | MIC S. marcescens [11, 12]: 50 µg/mL

PRT672 (DIDECMLFGSEICKEGKCVNTQPGYECYCKQGFYYDGNLLECV; listed as Homo sapiens)
MIC [1]: 12.5 µg/mL | MIC E. coli BL21 [2, 12]: 25 µg/mL | MIC P. aeruginosa [3, 12]: 12.5 µg/mL | MIC K. pneumonia [4, 12]: 25 µg/mL | MIC E. cloacae [5, 12]: 12.5 µg/mL | MIC A. hydrophila [6, 12]: 12.5 µg/mL | MIC C. diversus [7, 12]: 25 µg/mL | MIC M. catarrhalis [8, 12]: 12.5 µg/mL | MIC P. mirabilis [9, 12]: 25 µg/mL | MIC P. vulgaris [10, 12]: 50 µg/mL | MIC S. marcescens [11, 12]: 12.5 µg/mL

PRT869 (CKCNLHATVCVYDNSKLTCECEHNTTGPDCGKCKKNYQGRPWSPGSYLPIPKGTANTCIP; listed as Homo sapiens)
MIC [1]: 12.5 µg/mL | MIC (μg/mL) E. coli BL21 [2, 13]: 25 µg/mL | MIC (μg/mL) P. aeruginosa [3, 14]: 12.5 µg/mL | MIC (μg/mL) K. pneumonia [4, 15]: 12.5 µg/mL | MIC (μg/mL) E. cloacae [5, 16]: 12.5 µg/mL | MIC (μg/mL) A. hydrophila [6, 17]: 12.5 µg/mL | MIC (μg/mL) C. diversus [7, 18]: 12.5 µg/mL | MIC (μg/mL) M. catarrhalis [8, 19]: 12.5 µg/mL | MIC (μg/mL) P. mirabilis [9, 20]: 12.5 µg/mL | MIC (μg/mL) P. vulgaris [10, 21]: 12.5 µg/mL | MIC (μg/mL) S. marcescens [11, 22]: 50 µg/mL

PRT847 (CDCSPHGALSIPCNSSGKCQCKVGVIGSICDRCQDGYYGFSKNGCLP; listed as Homo sapiens)
MIC [1]: 12.5 µg/mL | MIC (μg/mL) E. coli BL21 [2, 13]: 25 µg/mL | MIC (μg/mL) P. aeruginosa [3, 14]: 12.5 µg/mL | MIC (μg/mL) K. pneumonia [4, 15]: 12.5 µg/mL | MIC (μg/mL) E. cloacae [5, 16]: 25 µg/mL | MIC (μg/mL) A. hydrophila [6, 17]: 12.5 µg/mL | MIC (μg/mL) C. diversus [7, 18]: 25 µg/mL | MIC (μg/mL) M. catarrhalis [8, 19]: 12.5 µg/mL | MIC (μg/mL) P. mirabilis [9, 20]: 12.5 µg/mL | MIC (μg/mL) P. vulgaris [10, 21]: 12.5 µg/mL | MIC (μg/mL) S. marcescens [11, 22]: 12.5 µg/mL

PRT119 (CAPCPNNGRPTLSGTECLCVCQSGTYGENCE; listed as Homo sapiens)
MIC [1]: 12.5 µg/mL | MIC (μg/mL) E. coli BL21 ([2]; E. coli BL21, 96-well plate, 5×10^5 CFU/mL, 37° C., 10 h): 50 µg/mL | MIC (μg/mL) P. aeruginosa ([3]; Pseudomonas aeruginosa, 96-well plate, 5×10^5 CFU/mL, 37° C., 10 h): 12.5 µg/mL | MIC (μg/mL) K. pneumonia ([4]; Klebsiella pneumonia, 96-well plate, 5×10^5 CFU/mL, 37° C., 10 h): 50 µg/mL | MIC (μg/mL) E. cloacae ([5]; Enterobacter cloacae, 96-well plate, 5×10^5 CFU/mL, 37° C., 10 h): 25 µg/mL | MIC (μg/mL) A. hydrophila ([6]; Aeromonas hydrophila, 96-well plate, 5×10^5 CFU/mL, 37° C., 10 h): 12.5 µg/mL | MIC (μg/mL) C. diversus ([7]; Citrobacter diversus, 96-well plate, 5×10^5 CFU/mL, 37° C., 10 h): 25 µg/mL | MIC (μg/mL) M. catarrhalis ([8]; Moraxella catarrhalis, 96-well plate, 5×10^5 CFU/mL, 37° C., 10 h): 50 µg/mL | MIC (μg/mL) P. mirabilis ([9]; Proteus mirabilis, 96-well plate, 5×10^5 CFU/mL, 37° C., 10 h): 25 µg/mL | MIC (μg/mL) P. vulgaris ([10]; Proteus vulgaris, 96-well plate, 5×10^5 CFU/mL, 37° C., 10 h): 12.5 µg/mL | MIC (μg/mL) S. marcescens ([11]; Serratia marcescens, 96-well plate, 5×10^5 CFU/mL, 37° C., 10 h): 12.5 µg/mL

PRT943 (PNVSCDIAASRRGVLVEHLCQHSGVCINAGNTHYCQCPLGYTGSYCE; listed as Homo sapiens)
MIC [1]: 12.5 µg/mL | MIC ([2]; E. coli BL21, 10 h cultivation at 37° C.): 12.5 µg/mL | MIC ([3]; P. aeruginosa, 10 h cultivation at 37° C.): 12.5 µg/mL | MIC ([4]; K. pneumonia, 10 h cultivation at 37° C.): 12.5 µg/mL | MIC ([5]; E. cloacae, 10 h cultivation at 37° C.): 25 µg/mL | MIC ([6]; A. hydrophila, 10 h cultivation at 37° C.): 12.5 µg/mL | MIC ([7]; C. diversus, 10 h cultivation at 37° C.): 12.5 µg/mL | MIC ([8]; M. catarrhalis, 10 h cultivation at 37° C.): 12.5 µg/mL | MIC ([9]; P. mirabilis, 10 h cultivation at 37° C.): 12.5 µg/mL | MIC ([10]; P. vulgaris, 10 h cultivation at 37° C.): 12.5 µg/mL | MIC ([11]; S. marcescens, 10 h cultivation at 37° C.): 50 µg/mL
